Where two headings read alike, the source gives them in different places.
How the values were obtained:
viruses = conditions: cited from earlier work
[1] = tested on: Gram-positive and Gram negative bacteria, fungi and yeasts; conditions: at concentrations of <100 ppm; cited from earlier work
[2] = tested on: aerobic microorganisms (TAMC); assay: Total Aerobic Microbial Count (TAMC) of porcine pancreas glands after PAA treatment
Experimental: For the preparation of pancreatin, 3 kg thawed whole porcine pancreas glands and 3 kg of porcine pancreas glands cut into approximately 2-inch strips were submerged in two different concentrations of PAA, 500 ppm and 2000 ppm for 10 and 15 minutes at room temperature (18-22° C.). Treated glands were rinsed with process water and placed into a sterile sample bag and stored at −20° C. for freezing not less than 12 hours. A total of 6 samples were tested per run. The preparation was executed 2 times. […] Whole gland (A)—500 ppm; • 2. Whole gland (B)—2000 ppm; • 3. Strip gland (A)—500 ppm; • 4. Strip gland (B)—2000 ppm; • 5. Whole gland (C)—No treatment-Control; • 6. Strip gland (C)—No treatment-Control. For all result see Tables 1 and 2.
The strip glands remained consistent.
For the preparation of pancreatin, 3 kg thawed whole glands and 3 kg of milled gland were submerged in two different concentrations of PAA, 500 ppm and 2000 ppm for 10 and 15 minutes at room temperature (18-22° C.). Treated glands were rinsed with purified water and placed into a sterile sample bag and stored at −20° C. for freezing not less than 12 hours. A total of 6 samples were tested per run. The preparation was executed 2 times. Milled glands were difficult to process due to slurry being formed after PAA treatment. […] Whole gland (A)—500 ppm; • 2. Whole gland (B)—2000 ppm; • 3. Milled gland (A)—500 ppm; • 4. Milled gland (B)—2000 ppm; • 5. Whole gland (C)—No treatment-Control; • 6. Milled gland (C)—No treatment-Control. For all results see table 3 and 4.
The TAMC results for both the whole glands and milled before PAA treatments were similar with 1400 and 1100 CFU/g. After 500 ppm and 2000 ppm PAA treatment, the TAMC results for the treated whole glands were exactly the same, 10 CFU/g. The milled glands were not tested after PAA treatment. See results in table 3.

[3] = tested on: Porcine circovirus type 2 (PCV 2); assay: Infectious PCV-2 titer by cell based in vitro assay using PK-13 cells (Large Volume Plating, interference assay); conditions: 500 and 2000 ppm, endogenous virus
[4] = tested on: Murine Minute Virus (MMV); assay: Viral clearance of spiked MMV on PAA-treated glands, TCID50 endpoint assay; type: cell-based; conditions: 10,000 ppm PAA, 30 min sample vs Recovery Control 0 minute
[5] = tested on: Encephalomycarditis Virus (EMC); type: cell-based, Encephalomyocarditis virus; conditions: 10,000 ppm PAA
vegetative bacteria = conditions: within 1 min at 25° C., 1.3 mmol/L of PAA; cited from earlier work
virus = assay: Transmission electron microscopy of gland tissue and pancreatin powder for virus; conditions: 20,000 ppm PAA for 30 minutes
Experimental: Electron Microscopic Study: Referring to FIGS. 4A-4D, transmission electron microscopy (TEM) and scanning electron microscopy (SEM) were performed to visualize the presence of bacteria and viruses on surface of pancreas gland tissue and pancreatin powder treated with differing concentration of PAA and were compared to non-treated (control) samples.
Pancreas gland tissues treated with PAA and untreated samples as well as resulting pancreatin powder produced with PAA treatment were analyzed with TEM and SEM. For SEM samples were coated with an ultrathin coating of electrically conducting material, deposited on the sample by low-vacuum sputter coating evaporation. A conductive material in current coating used was gold to observe bacteria and viruses. A ZEISS LEO-1530 DSM scanning electron microscope was used to produce the images of FIGS. 4A and 4B. […] (scale bar is 2 μm). […] Viruses are very small in size (15 to 100 nm) and were not possible to observe in SEM. For TEM the pancreas gland tissue and pancreatin powder sample treated with 20,000 ppm PAA for 30 minutes and control samples were stained with 2% uranyl acetate (aq). A Model H-7600 HITACHI transmission electron microscope, Version 3.01, was used to produces the images of FIGS. 4C and 4D. Three TEM slides of each treatment were observed. Each TEM slide had 400 grids to observe. A minimum of 10-15 grids per slide were observed.

[6] = Strip Gland, Run # 1, Example 1
[7] = Whole Gland, Run # 1, Example 1
[8] = Whole Gland, Run # 2, Example 1

CC(=O)OO [PAA, Peracetic acid]
dosage range for viruses (viruses): 100-40,000 ppm | time to inactivate [1]: less than 5 minutes | TAMC After Treatment at 500 ppm [2, 6]: 130 CFU/g | TAMC After Treatment at 2000 ppm [2, 6]: 45 CFU/g | TAMC After 500 ppm PAA Treatment ([2]; Whole Gland, Example 2): 10 CFU/g | TAMC After 2000 ppm PAA Treatment ([2]; Whole Gland, Example 2): 10 CFU/g | TAMC After Treatment at 500 ppm [2, 7]: 90 CFU/g | TAMC After Treatment at 2000 ppm [2, 7]: 50 CFU/g | TAMC After Treatment at 500 ppm [2, 8]: 30 CFU/g | TAMC After Treatment at 2000 ppm [2, 8]: 10 CFU/g | effect of PAA surface treatment in PCV-2 infectivity test [3]: no discernable effect | MMV reduction factor [4]: 3.0±0.9 Log10 | EMC reduction factor ([5]; at 15 minutes): about 1.75 log10 | EMC reduction factor ([5]; calculated using the 30 min sample): about 0.8 log10 | reduction factor in the number of vegetative bacteria (vegetative bacteria): 10^6 | virus in pancreas gland tissue (TEM) (virus): No virus was observed

From patent publication US11952603B2, “Method for reducing or inactivating viral and microbial content in the processes for the manufacture of pancreatin” (SCIENTIFIC PROTEIN LABORATORIES, LLC, priority 2015, dated 2024)
